According to a melting point compilation (Tetko et al.; mined from patent text by program, amines drawn as free bases though some values may be those of a salt):

Compound | melting point
CNS(=O)(=O)C1CN(C)c2cc(F)ccc2C1=O (stereo unspecified) | 134 to 136 °C
O=S(=O)(NCc1ccnc2ccccc12)c1ccc(-c2cc(Cl)ccc2Cl)cc1 | 124 °C
O=C(c1ccc(Cl)cc1)c1ccc2c(c1)C(c1cccc(Cl)c1)=NCC(=S)N2 | 125 °C
CNC(=O)NC1CC(N)(C(=O)O)C2C(C(=O)O)C12 (stereo unspecified) | > 275 °C
Cc1ccccc1-c1nc(N)ncc1-c1ccc(=O)n(C)n1 | 229 °C
OC(CNC1=NCCN1)c1ccc(Cl)c(Cl)c1 (stereo unspecified) | 148 °C
CNC(=O)[C@@H]1CCCN1C(=O)[C@H](C)NC(=O)OCc1ccccc1 | 126 to 129 °C
CC(C(=O)O)c1ccc([N+](=O)[O-])c(CC(=O)O)c1 (stereo unspecified) | 169 to 171 °C
CCCc1c(OCCCCCc2ccccc2CCC(=O)O)ccc2c1OCCC2=O | 94 to 96 °C
CCCCCCCCCCSC(=S)N1Cc2[nH]c3ccccc3c2CC1CO (stereo unspecified) | 115 to 118 °C
O=C(Nc1ccc(F)cc1)c1cccc([N+](=O)[O-])c1 | 167 to 168 °C
Cc1ccc(C(=O)Nc2ccc(-n3ccnc3C)c(C(F)(F)F)c2)cc1Nc1nccc(-c2cccnc2)n1 | 154 to 163 °C
CCC(=O)Oc1cccc2c(-c3ccccc3)c3cccc(OC(=O)CC)c3c(OC(=O)CC)c12 | 216 °C
CCC(=O)OC1(C(=O)CCl)C(C)CC2C3CCC4CC(=O)CCC4(C)C3(F)C(=O)CC21C (stereo unspecified) | 184 to 186 °C
CNC(=O)Nc1cc2c(c3c1OC(C)(C)C3)C(c1ccccc1)=NC(C)(C)C2 | 209 to 211 °C
O=c1[nH]cnc2cc(O)c(O)cc12 | > 250 °C
COc1ccc(C2(CF)CCC(=O)CC2)cc1OC1CCCC1 | 72 to 74 °C
O=C(O)c1cc2ccccc2c(Cl)c1O | 234 to 235 °C
CCCn1c(=O)c2[nH]c(C3CC4CCC3C4)nc2n(CCC)c1=O (stereo unspecified) | 136 to 138 °C
Cc1cc2c(c([N+](=O)[O-])c1)N(c1ccccc1C#N)CC2 | 138 to 139 °C
COC(=O)c1cc(=O)c2ccccc2o1 | 120 to 122 °C

Compound | melting point
Cc1c(CCl)ncn1S(=O)(=O)N(C)C | 115 to 118 °C
CCCCC(C)(C)C(NC(=O)c1ccc(Cl)cc1)NC(=NC#N)Nc1cccnc1 (stereo unspecified) | 168 to 170 °C
Cc1cc(Br)cnc1CCCCNc1ncc(Cc2ccc(F)cc2)c(=O)[nH]1 | 172 to 173 °C
Cn1cc(Oc2cccc(C(F)(F)F)c2)c(=O)c(-c2cccc(C(F)(F)F)c2)c1 | 93 to 95 °C
CC(CNC(=O)CN1C(=O)CCC1C)N1CCCCC1 (stereo unspecified) | 111 to 112 °C
CCOCOc1c(-c2ccc(C(=O)Nc3ccc(OC(C)=O)cc3)cc2)ccc2cc(OC)c(C34CC5CC(CC(C5)C3)C4)cc12 | 206 to 207 °C
c1ccc(CNc2nnc(-c3ccc(CN4CCCCCC4)s3)s2)cc1 | 165 to 166 °C
CC(CCc1ccc(Cl)cc1)(Cn1ccnc1)Sc1cccc(Cl)c1Cl (stereo unspecified) | 126 to 128 °C
OC1CCCC(n2c(NC3CC3)nc3cc(Cl)c(Cl)cc32)C1O (stereo unspecified) | > 25 °C
CC1(C)CS(=O)(=O)CC(C)(C)N1Cl | 163 °C
Cc1c(C)c2c(c(C)c1NC(=O)CC(C)(C)C)C(c1ccc(C3CCCCC3)cc1)CO2 (stereo unspecified) | 146 to 148 °C
Cc1cc(OCCCC(=O)N(CCCCO)C2CCCCC2)cc(C=O)c1[N+](=O)[O-] | 72 to 73 °C
O=[N+]([O-])c1c(OS(=O)(=O)C(F)(F)F)nc2ccccc2c1OS(=O)(=O)C(F)(F)F | 74.5 to 76 °C
Cc1ccc(F)c(-n2cnc(-c3cnc4[nH]cc(C(=O)N[C@@H](C)C(C)(C)C)c4n3)c2)c1 | 331 to 332 °C
CC(C#Cc1ccc(Oc2ccc(C(C)(C)C)cc2)o1)N(O)C(N)=O (stereo unspecified) | 144 to 145 °C
CCOC(=O)c1c(C(F)(F)F)nc2ccccc2c1O | 192 °C
Cc1[nH]cnc1CN1CCc2c(c3cccc(F)c3n2C)C1 | 188 to 190 °C
O=C(O)c1cnccc1C(=O)c1ccc(F)cc1 | 231 to 232 °C
CCCCCCCCCCCCCCCCS(N)(=O)=O | 98 to 100 °C
CCOC(=O)C1=C(N)NC(c2ccccc2)=C(C(=O)O)C1c1ccccc1 (stereo unspecified) | 183 °C
NNC1=NS(=O)(=O)c2cc(Cl)ccc21 | 277 °C

Compound | melting point
CN1CCC(N(CCN2CCCC2)S(=O)(=O)c2ccc(Nc3nccc(Nc4ccc(F)cc4)n3)cc2)CC1 | 250 °C
Cc1nn(C)c2c(=O)n(C)c(=O)n(C)c12 | 210 to 211 °C
CCOC(=O)Cc1ccc(NC(=O)C(CCc2ccccc2)NS(=O)(=O)c2ccc(Br)cc2)cc1 (racemic) | 130 to 131 °C
CCOC(=O)c1ccc(OCc2ccccc2)c(OC)c1 | 72 to 74 °C
O=C1NCCNc2c1sc1ccccc21 | 210 to 212 °C
OCc1ccc2c(c1)ncn2Cc1ccccc1 | 148 to 150 °C
CCOCCOc1ccc(C(=O)Nc2ccc3cc(CN4CCCC4)cnc3c2C)c(F)c1 | 132 °C
CS(=O)(=O)Nc1ccccc1Sc1c(C(=O)O)sc2cc(OCc3cccnc3)ccc12 | 258 to 260 °C
CCNc1ncnc2nc(-c3ccncc3)[nH]c12 | 308 to 310 °C
Cc1ccccc1-c1c(NC(=O)Nc2c(C)cccc2C(C)C)c(=O)oc2c(F)cc(F)cc12 | 219 to 220 °C
Cc1cccc(N2CCN(CCc3ccc(NC(=O)NCCCCl)cc3)CC2)c1 | 168 °C
O=[N+]([O-])c1ccc(-c2cc[nH]n2)cc1 | 196 to 197 °C
O=C(O)Cc1ccc(-c2onc3ccccc23)cc1 | 179 to 181 °C
CC(=O)Nc1cc(C(=O)O)cc(C(F)(F)F)c1 | 194 to 220 °C
CCC(CC)c1ccc(Cl)c2nc3n(c12)CCCC(=O)N3c1ccc(Cl)cc1Cl | 135 to 137 °C
O=C(O)c1cccc(Cn2ccn(C3CCc4ccccc4C3)c2=S)c1 (stereo unspecified) | 252 to 254 °C
COc1ccc(C(O)C(F)(F)C(=O)SC(C)(C)C)cc1 (stereo unspecified) | 73 to 75 °C
Cc1c(C(=O)NCC(=O)O)oc2cc(-c3ccc(Cn4c(C)nc5ccccc54)cc3)ccc12 | 248 to 250 °C
CCOCc1nc2c(N)nc3cc(N4CCCCC4=O)ccc3c2n1CCCOC(C)C | 205 to 206 °C
CC(C)c1ccc(NC(=O)OC(C)(C)C)c(C(=O)NCC2CCN(C(c3ccccc3)c3ccccc3)CC2)c1 | 88 to 90 °C
COc1cc(N)c(Cl)cc1C(=O)N[C@H]1CCNC[C@H]1OC (relative stereo) | 184 °C

The remaining lines, values ahead:

melting point | Compound
250 °C | CCN(CC)C(=O)Nc1ccc(S(=O)(=O)n2c(=O)n(C3CCCCC3)c3cc(Cl)ccc32)c(OC)c1
197 to 199 °C | NC(=O)c1cncc(OCC(O)CO)c1 (stereo unspecified)
132 °C | CN(c1ccc(Cl)cc1)S(=O)(=O)c1cn(S(=O)(=O)N(C)C)cn1
127 °C | CC#CCOc1ccc(C(=O)NC[C@@H](C(=O)NO)N2CCN(S(C)(=O)=O)CC2)cc1
86 to 88 °C | CCn1c2c(c3ccccc31)CCSC2(C)CCN(C)C (stereo unspecified)
179 to 181 °C | Cn1cc(OC(=O)c2ccccc2)c(=O)c2cccc(F)c21
129 °C | COc1c(C)c(=O)oc2cc(-c3ccc(C(C)C)cc3)ccc12
134 to 136 °C | CCCCOCCOc1ccc(-c2ccc3c(c2)C=C(C(=O)Nc2ccc(N(C)Cc4nncn4CCC)cc2)CCN3CC(C)C)cc1
167 °C | COc1cc(-c2nc3ccc(OCCN4CCCCC4)cc3n2Cc2ccccc2C(F)(F)F)cc(OC)c1OC
198 to 200 °C | Cc1cccc(C(=O)c2[nH]c3cc(Cl)ccc3c2NC(=O)N(C)C)c1
236 to 238 °C | NC(=S)/C=C/c1cc([N+](=O)[O-])ccc1Cl
92 to 93 °C | Cc1cc(C)nc(NCC#N)c1
98 to 104 °C | COCCCn1nnnc1-c1cc(-c2ccc(C(F)(F)F)cc2)c(O)cc1O
96 to 99 °C | COc1cccc(-c2nc(-c3ccccn3)no2)c1
98 to 100 °C | CC(C)(C)c1ccc2c(c1)ncn2-c1cccc(Br)n1
203 to 204 °C | NC(=O)CNC(=O)c1cccc(-c2ccc3c(c2)N(c2cccc(Cl)c2Cl)CC3)c1
114 to 115 °C | CCC(=O)c1c(O)oc(=O)c(C(=O)CC)c1O
192 °C | COc1cccc(-c2nc(N)c(C(N)=O)nc2-c2ccc(=O)n(C(C)C)c2)c1
80.5 to 83.5 °C | C=C=COc1ccc2ccc(OC=C=C)cc2c1

melting point | Compound
152 °C | N#Cc1c(SC(F)(F)F)c(N)n(-c2ccc(C(F)(F)F)cc2)c1Br
90 °C | O=C1C=NC(c2ccccc2)O1 (stereo unspecified)
137 °C | COc1cc(Br)cc2c1OCCC2=O
121 to 122 °C | COC(=O)c1ccc(OC2=C3N=C4CCCCC4=C3C(Cc3ccccc3F)C=C2)o1 (stereo unspecified)
> 270 °C | N#CC1=C(C2CCCCC2=O)Nc2n[nH]cc2C1c1cccc2nonc12 (stereo unspecified)
145 to 147 °C | NC(=O)c1cc(Cl)c(F)c(Cl)c1F
126 to 128 °C | CCOC(=O)C(C#N)c1cn(C(=O)OCC)c2cc(Cl)ccc12 (stereo unspecified)
135 to 137 °C | CCCCc1nn(-c2cc([N+](=O)[O-])ccc2C(F)(F)F)c(=O)n1Cc1ccc(-c2ccccc2S(=O)(=O)NC(C)(C)C)cc1
136 to 137 °C | CCOC(=O)c1cc(=O)nc2n1-c1ccc(C)cc1OC2
170 °C | O=C(O)/C=C/c1ccc(N2CCCC2)nc1
44 to 46 °C | O=C(C=Cc1ccc(F)cc1)C1CCCCC1
150 to 152 °C | CCCCc1ncc(/C=C(\Cc2cccs2)C(=O)O)n1Cc1ccc(O)c(C)c1
115 to 118 °C | CN1CCN(Cc2cc3c(cc2F)-c2[nH]nc(-c4ccsc4)c2C3)CC1
180 to 181 °C | N#CCc1nn2c(-c3cccc(C(F)(F)F)c3)ccnc2c1C#N
210 to 212 °C | NS(=O)(=O)c1ccc(NN=C2C(=O)Nc3ccc(C(=O)NCCN4CCOCC4)cc32)cc1
96 to 97 °C | COC(=O)CCC(=O)c1ccc2c(c1)CC(CCNC(C)=O)C2 (stereo unspecified)
157 °C | CC(C)(O)c1ccc(-c2ccc(=O)n(Cc3ccc(Cl)cc3)c2)cc1
116 to 118 °C | Cc1c(-c2ccc3oc(SCc4ccccn4)nc3c2)nc2ccccn12
99.5 to 101 °C | CCc1noc(C)c1C(=O)Nc1cccc(F)c1
